Results from patent US11059795B2, “Androgen receptor modulators and methods for their use” (ESSA Pharma, Inc., priority 2018, dated 2021).

Columns and labels:
androgen receptor (AR) = biological target: T1, androgen receptor (AR) (Homo sapiens, UniProt P10275, T878A); assay: Androgen-induced PSA (6.1 kb)-luciferase reporter assay in LNCaP cells; assay type: cell-based; conditions: LNCaP cells transfected with PSA (6.1 kb)-luciferase reporter, R1881 1 nM, 24 h; read-out: PSA-Luc IC50 Range
T1 construct: LNCaP cells were transiently transfected with the PSA (6.1 kb)-luciferase reporter for 24 h; endogenous in cells; host or cells: LNCaP
T1 sequence (P10275 1-920 T878A): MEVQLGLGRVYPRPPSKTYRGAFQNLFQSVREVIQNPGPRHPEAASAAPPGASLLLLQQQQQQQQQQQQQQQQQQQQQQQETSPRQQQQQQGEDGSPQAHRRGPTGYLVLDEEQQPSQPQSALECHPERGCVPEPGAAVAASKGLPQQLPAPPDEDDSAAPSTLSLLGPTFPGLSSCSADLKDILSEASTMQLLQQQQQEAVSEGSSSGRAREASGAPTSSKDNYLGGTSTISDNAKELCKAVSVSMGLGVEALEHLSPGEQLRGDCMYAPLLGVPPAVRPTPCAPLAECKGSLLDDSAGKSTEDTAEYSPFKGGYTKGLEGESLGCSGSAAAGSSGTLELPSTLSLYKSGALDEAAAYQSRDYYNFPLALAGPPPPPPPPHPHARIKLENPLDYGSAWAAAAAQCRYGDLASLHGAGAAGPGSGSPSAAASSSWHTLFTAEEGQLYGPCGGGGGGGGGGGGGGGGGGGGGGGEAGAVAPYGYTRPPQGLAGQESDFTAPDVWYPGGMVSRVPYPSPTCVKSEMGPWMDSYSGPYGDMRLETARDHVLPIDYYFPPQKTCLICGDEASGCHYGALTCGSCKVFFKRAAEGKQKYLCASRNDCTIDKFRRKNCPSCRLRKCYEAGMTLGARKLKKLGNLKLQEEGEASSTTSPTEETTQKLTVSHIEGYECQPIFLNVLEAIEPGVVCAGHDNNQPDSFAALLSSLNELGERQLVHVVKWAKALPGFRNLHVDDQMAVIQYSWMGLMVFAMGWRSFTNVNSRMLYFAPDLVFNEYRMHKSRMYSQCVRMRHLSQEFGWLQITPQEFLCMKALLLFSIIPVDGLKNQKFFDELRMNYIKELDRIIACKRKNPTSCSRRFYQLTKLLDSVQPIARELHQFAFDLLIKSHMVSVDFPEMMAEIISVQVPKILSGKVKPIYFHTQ
Outline: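 Read-out is firefly luminescence (10 s) in LNCaP lysates, normalized to protein, from an ARE-containing PSA (6.1 kb)-luciferase reporter driven by androgen.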

[1] = Microsomal stability assay, mouse liver microsomes; assay type: in vitro ADME; conditions: mouse, liver microsomes, pH 7.4, mouse liver microsomes, 1 μM compound, 0.5 mg/mL protein, 37° C.; read-out: MLM +30/− NADPH: Clint (μL/min/mg protein)
Outline: (§1)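 Compound at 1 μM was incubated at 37° C with 0.5 mg/mL liver microsomes and 1 mM NADPH and/or 1 mM UDPGA (with alamethicin) in 100 mM potassium phosphate pH 7.4, 3 mM MgCl2. Samples were taken at 0, 15, 30 and 60 min and measured by LC/MS/MS. t½ came from compound loss relative to 0 min, and Clint was scaled with 45 mg microsomal protein/g liver.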

[2] = Microsomal stability assay, human liver microsomes; assay type: in vitro ADME; conditions: pH 7.4, 1 μM compound, 0.5 mg/mL protein, 37° C., read-out: HLM +/− NADPH: Clint (μL/min/mg protein)
Outline: as §1

[3] = In vivo pharmacokinetics in plasma after oral gavage (PO) in male CD-1 mice; conditions: plasma, single PO dose 5 mg/kg, male CD-1 mice; for bioavailability / AUC(0-t) / Cmax / Tmax / half-life: mouse; for bioavailability: oral availability; for half-life: read-out: t½ (converted)
Protocol: The purpose of this study is to determine the pharmacokinetics of the tested compounds in plasma, following oral gavage administration (PO) to male CD-1 mice.
Animal Husbandry: Animals were group housed during acclimation and the study. The animal room environment were controlled (target conditions: temperature 18 to 26° C., relative humidity 30 to 70%, 12 hours artificial light and 12 hours dark). Temperature and relative humidity were monitored daily. Animals were fasted at least 12 hours prior to the administration. All animals had access to Certified Rodent Diet ad libitum 4 hours post dosing.
Dose Formulation: prepared 85-100 uL of a stock solution of representative compounds of the disclosure in DMSO at 50 mM; 1.5% v/v of Tween 80 were added and mixed gently; 95.5% v/v saline was added gently to the organic phase. The solution was mixed slowly by reverse pipetting to get a clear solution.
Dose Administration: the dose formulations were administered via oral gavage per facility SOPs. The dose volume were determined by the animals' body weight collected on the morning of dosing day
Sample Collection: blood collection (about 0.05 mL per time point) was performed from saphenous vein of each animal into polypropylene tubes at each timepoints (0, 0.25, 0.5, 1, 2, 4, 8, 12, and 24 hr). All blood samples were transferred into pre-chilled tubes containing 2 μL of K2-EDTA (0.5M) and placed on wet ice until centrifugation. Each collected blood sample was in the wet-ice before centrifugation. Each collected blood was under centrifugation for 15 minutes at 4° C. and 3000 g for plasma collection. Plasma samples were stored in polypropylene tubes, quickly frozen over dry ice and kept at −70±10° C. until LC/MS/MS analysis.
Bioanalytical analysis: A LC-MS/MS method for the quantitative determination of tested compound in biological matrix were developed under non-GLP compliance. A calibration curve with at least 7 non-zero calibration standards were applied for the method including LLOQ.
Plasma concentration versus time data were analyzed by non-compartmental approaches using the Phoenix WinNonlin 6.3 software program. Cl, Vdss, C0, Cmax, Tmax, T^1/2, AUC(0-t), AUC(0-inf), MRT(0-t), MRT(0-inf), % F (oral availability) and graphs of plasma concentration versus time profile were reported.

[4] = Hepatocyte stability assay, mouse hepatocytes; assay type: in vitro ADME; conditions: mouse, cryopreserved hepatocytes, 1 μM compound, 0.5 million cells/mL, 37° C., read-out: MH +/− NADPH: Clint (μL/min/million cells)
Outline: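 Cryopreserved rat, human or mouse hepatocytes at 0.5 million cells/mL in DMEM with 1 μM compound, 37° C, sampled at 0, 60, 120 and 180 min and quenched with acetonitrile/formic acid. Parent loss vs 0-min by LC/MS/MS gave t½, and Clint = 0.693/t½ × mL incubation/million cells.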

Cc1cc(C(C)(C)c2ccc(OCc3ocnc3S(C)(=O)=O)cc2)cc(C#N)c1OCCCl [Compound A29, 2-(2-chloroethoxy)-3-methyl-5-(2-(4-((4-(methylsulfonyl)oxazol-5-yl)methoxy)phenyl)propan-2-yl)benzonitrile]
IC50 (androgen receptor (AR)): < 500 nM | microsomal CLint at 1 μM [1]: 12 to 48 µL/min/mg | microsomal CLint at 1 μM [2]: 12 to 48 µL/min/mg | bioavailability [3]: 60.6% | AUC(0-t) [3]: 5190 ng·h/mL | Cmax [3]: 2010 ng/mL | Tmax [3]: 30 min | half-life [3]: 150 min | AUC/D [3]: 1037.3 kg·ng·h/mL/mg

CC(Oc1ccc(C(C)(C)c2cc(Cl)c(OCCCl)c(Cl)c2)cc1)c1ocnc1S(C)(=O)=O (stereo not shown) [Compound A35, 5-(1-(4-(2-(3,5-Dichloro-4-(2-chloroethoxy)phenyl)propan-2-yl)phenoxy)ethyl)-4-(methylsulfonyl)oxazole]
IC50 (androgen receptor (AR)): 500 to 2000 nM | microsomal CLint at 1 μM [1]: 12 to 48 µL/min/mg | microsomal CLint at 1 μM [2]: < 12 µL/min/mg | bioavailability [3]: 49.6% | AUC(0-t) [3]: 2420 ng·h/mL | Cmax [3]: 819 ng/mL | Tmax [3]: 30 min | half-life [3]: 240 min | AUC/D [3]: 483.0 kg·ng·h/mL/mg

CC(C)(c1ccc(OCc2ncc(S(C)(=O)=O)o2)cc1)c1cc(Cl)c(OCCCl)c(Cl)c1 [Compound A66]
IC50 (androgen receptor (AR)): 500 to 2000 nM | microsomal CLint at 1 μM [1]: < 12 µL/min/mg | microsomal CLint at 1 μM [2]: < 12 µL/min/mg | bioavailability [3]: 71.4% | AUC(0-t) [3]: 11900 ng·h/mL | Cmax [3]: 1610 ng/mL | Tmax [3]: 48 min | half-life [3]: 720 min | AUC/D [3]: 2385.4 kg·ng·h/mL/mg

CC(C)(c1ccc(OCc2cnc(NS(C)(=O)=O)cn2)cc1)c1cc(Cl)c(OCCCl)c(C#N)c1 [Compound A197]
IC50 (androgen receptor (AR)): 500 to 2000 nM | microsomal CLint at 1 μM [1]: < 12 µL/min/mg | microsomal CLint at 1 μM [2]: < 12 µL/min/mg | hepatocyte CLint at 1 μM [4]: < 4 µL/min/1e6 cells

CC(C)(c1ccc(OCc2ccnc(N3CCCCS3(=O)=O)n2)cc1)c1cc(Cl)c(OCCCl)c(C#N)c1 [Compound A198]
IC50 (androgen receptor (AR)): < 500 nM | microsomal CLint at 1 μM [1]: 12 to 48 µL/min/mg | microsomal CLint at 1 μM [2]: < 12 µL/min/mg | hepatocyte CLint at 1 μM [4]: 4 to 18 µL/min/1e6 cells

CC(C)(c1ccc(OCc2ccnc(N3CCCS3(=O)=O)n2)cc1)c1cc(Cl)c(OCCCl)c(C#N)c1 [Compound A199]
IC50 (androgen receptor (AR)): < 500 nM | microsomal CLint at 1 μM [1]: ≥ 48 µL/min/mg | microsomal CLint at 1 μM [2]: < 12 µL/min/mg | hepatocyte CLint at 1 μM [4]: 4 to 18 µL/min/1e6 cells

CC(C)(c1ccc(OCc2ccnc(C#N)n2)cc1)c1cc(Cl)c(OCCCl)c(C#N)c1 [Compound A200]
IC50 (androgen receptor (AR)): 500 to 2000 nM | microsomal CLint at 1 μM [1]: < 12 µL/min/mg | microsomal CLint at 1 μM [2]: < 12 µL/min/mg | hepatocyte CLint at 1 μM [4]: 4 to 18 µL/min/1e6 cells

[2H]c1c([2H])c(C(C)(C)c2cc(Cl)c(OCCCl)c(C#N)c2)c([2H])c([2H])c1OCc1ccnc(NS(C)(=O)=O)n1 [Compound A201]
IC50 (androgen receptor (AR)): 500 to 2000 nM | microsomal CLint at 1 μM [1]: < 12 µL/min/mg | microsomal CLint at 1 μM [2]: < 12 µL/min/mg | hepatocyte CLint at 1 μM [4]: < 4 µL/min/1e6 cells

CC(C)(c1ccc(OCc2nc(NS(C)(=O)=O)nc3c2CCC3)cc1)c1cc(Cl)c(OCCCl)c(C#N)c1 [Compound A202]
IC50 (androgen receptor (AR)): 500 to 2000 nM | microsomal CLint at 1 μM [1]: ≥ 48 µL/min/mg | microsomal CLint at 1 μM [2]: < 12 µL/min/mg | hepatocyte CLint at 1 μM [4]: ≥ 18 µL/min/1e6 cells

CC(C)(c1ccc(OCc2cnc(NS(C)(=O)=O)nc2)cc1)c1cc(Cl)c(OCCCl)c(C#N)c1 [Compound A204]
IC50 (androgen receptor (AR)): < 500 nM | microsomal CLint at 1 μM [1]: < 12 µL/min/mg | microsomal CLint at 1 μM [2]: < 12 µL/min/mg | hepatocyte CLint at 1 μM [4]: < 4 µL/min/1e6 cells

CC(C)(c1ccc(OCc2coc(S(N)(=O)=O)c2)cc1)c1cc(Cl)c(OCCCl)c(C#N)c1 [Compound A207]
IC50 (androgen receptor (AR)): < 500 nM | microsomal CLint at 1 μM [1]: < 12 µL/min/mg | microsomal CLint at 1 μM [2]: < 12 µL/min/mg | hepatocyte CLint at 1 μM [4]: < 4 µL/min/1e6 cells

CC(C)(c1ccc(OCc2coc(S(C)(=O)=O)c2)cc1)c1cc(Cl)c(OCCCl)c(C#N)c1 [Compound A208]
IC50 (androgen receptor (AR)): < 500 nM | microsomal CLint at 1 μM [1]: < 12 µL/min/mg | microsomal CLint at 1 μM [2]: < 12 µL/min/mg | hepatocyte CLint at 1 μM [4]: < 4 µL/min/1e6 cells

CC(=O)NN1C(=O)N(c2ccc(C(C)(C)c3cc(Cl)c(OCCCl)c(Cl)c3)cc2)C(=O)C1(C)C [Compound B5]
IC50 (androgen receptor (AR)): 500 to 2000 nM | microsomal CLint at 1 μM [1]: < 12 µL/min/mg | microsomal CLint at 1 μM [2]: < 12 µL/min/mg | hepatocyte CLint at 1 μM [4]: 4 to 18 µL/min/1e6 cells
